This is an account of results in patent US12209102B2, “Heterocyclic compounds and uses thereof” (Kumquat Biosciences Inc., priority 2022, dated 2025).

The target of one assay is T1, K-Ras WT (Homo sapiens, UniProt P01116).
T1 construct: made in house; host or cells: E. coli BL21 (DE3)
Nature of the assay: HTRF resonance energy transfer assay, K-Ras WT / SOS1 interaction. Type of assay: biochemical. The note with it: HTRF assay of Example 5; read-out: IC50 against K-Ras WT. Summed up: (§1)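 Compounds, tested in duplicate at 10 μM down to 0.01 μM, were read after about 10 min or more by HTRF as the 665/620 nm emission ratio (337 nm excitation) to derive IC50. This ratio reports FRET between an anti-GST-Eu donor on GST-K-Ras (wild-type or mutant) and an anti-6His-XL665 acceptor on His-hSOS1. Buffer: ~5 mM HEPES pH 7.4, 150 mM NaCl, 1 mM DTT, 0.05% BSA, 0.0025% Igepal.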

In the next assay the test system is A549 cells. Nature of the assay: Ras cellular assay, growth of cells with K-Ras G12S mutation (CellTiter-Glo). The format is cell-based. The note with it: Homo sapiens, cell growth, Example 9, G12S mutation, read-out: IC50 against A549 cells. The protocol: For example, this assay can be also used to assess a selective growth inhibition of a mutant Ras protein relative to a wildtype, or relative to a different mutant Ras protein.
A549 (ATCC CCL-185) and LS123 (ATCC CCL-255) cell lines comprise a G12S mutation and can be used to assess Ras cellular signaling in vitro, e.g., in response to the compounds herein. A549 culture medium is prepared with RPMI-1640 and 10% heat-inactivated FBS. LS123 culture medium is prepared with RPMI-1640 and 10% heat-inactivated FBS. A CellTiter-Glo (CTG) luminescent based assay (Promega) is used to assess growth of the cells, as a measurement of the ability of the compounds herein to inhibit Ras signaling in the cells. The cells (e.g., 800 per well) are seeded in their respective culture medium in standard tissue culture-treated 384-well format plates (Falcon #08-772-116) or ultra-low attachment surface 384-well format plates (S-Bio #MS-9384WZ). The day after plating, cells are treated with a dilution series (e.g., a 10 point 3-fold dilution series) of the compounds herein (e.g., approximately 40 μL final volume per well). Cell viability can be monitored (e.g., approximately 6 days later) according to the manufacturer's recommended instructions, where the CellTiter-Glo reagent is added (e.g., approximately 10 μL), vigorously mixed, covered, and placed on a plate shaker (e.g., approximately for 20 min) to ensure sufficient cell lysis prior to assessment of luminescent signal. The IC50 values are determined using the four parameter fit. The resulting IC50 value is a measurement of the ability of the compounds herein to reduce cell growth of Ras-driven cells (e.g., tumor cell lines) in vitro and/or in vivo.

Another assay has as its system SW620 cells. Nature of the assay: Ras cellular assay, growth of cells with K-Ras G12V mutation (CellTiter-Glo). The format is cell-based. Conditions: Homo sapiens, SW-620; cell growth, Example 9, G12V mutation; read-out: IC50 against SW620 cells. Summed up:
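IC50 values came from a four-parameter fit of CellTiter-Glo viability, read roughly 6 days after dosing with e.g. a 10-point threefold dilution series. G12V-mutant SW620 cells (e.g. 800 per well) had been plated the previous day in RPMI-1640/10% heat-inactivated FBS, on tissue culture-treated or ultra-low attachment plates.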

For a further assay, the target named is T2, K-Ras G12D (Homo sapiens, UniProt P01116, G12D).
T2 construct: made in house; host or cells: E. coli BL21 (DE3)
Nature of the assay: HTRF resonance energy transfer assay, K-Ras G12D / SOS1 interaction. Type of assay: biochemical. The note with it: HTRF assay of Example 5; read-out: IC50 against K-Ras G12D. The gist of the method: as §1

In another assay the target is T3, K-Ras G12S (Homo sapiens, UniProt P01116, G12S).
T3 construct: made in house; host or cells: E. coli BL21 (DE3)
Kind of assay: HTRF resonance energy transfer assay, K-Ras G12S / SOS1 interaction. The format is biochemical. The note with it: HTRF assay of Example 5; read-out: IC50 against K-Ras G12S. Summed up:
as §1

Another assay concerns the target T4, K-Ras G12V (Homo sapiens, UniProt P01116, G12V).
T4 construct: made in house; host or cells: E. coli BL21 (DE3)
Nature of the assay: HTRF resonance energy transfer assay, K-Ras G12V / SOS1 interaction. Type of assay: biochemical. The note with it: HTRF assay of Example 5; read-out: IC50 against K-Ras G12V. Summed up:
as §1

T3 sequence (P01116 1-188 isoform P01116-2 G12S): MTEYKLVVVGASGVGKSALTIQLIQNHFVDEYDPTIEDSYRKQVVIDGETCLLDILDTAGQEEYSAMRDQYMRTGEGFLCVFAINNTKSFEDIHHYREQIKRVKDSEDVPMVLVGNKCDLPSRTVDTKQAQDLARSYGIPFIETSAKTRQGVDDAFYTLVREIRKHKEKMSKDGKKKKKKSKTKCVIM
T2 sequence (P01116 1-188 isoform P01116-2 G12D): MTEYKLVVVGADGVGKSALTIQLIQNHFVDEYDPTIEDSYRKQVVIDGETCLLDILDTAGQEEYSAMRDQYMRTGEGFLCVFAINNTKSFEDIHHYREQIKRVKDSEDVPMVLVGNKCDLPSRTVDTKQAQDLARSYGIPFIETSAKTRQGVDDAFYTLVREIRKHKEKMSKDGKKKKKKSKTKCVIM
T4 sequence (P01116 1-188 isoform P01116-2 G12V): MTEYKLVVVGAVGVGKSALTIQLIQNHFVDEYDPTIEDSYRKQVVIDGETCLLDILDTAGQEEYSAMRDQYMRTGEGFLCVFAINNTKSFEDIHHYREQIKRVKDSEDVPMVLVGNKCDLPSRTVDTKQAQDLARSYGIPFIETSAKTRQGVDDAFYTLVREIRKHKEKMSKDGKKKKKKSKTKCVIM
T1 sequence (P01116 1-188 isoform P01116-2): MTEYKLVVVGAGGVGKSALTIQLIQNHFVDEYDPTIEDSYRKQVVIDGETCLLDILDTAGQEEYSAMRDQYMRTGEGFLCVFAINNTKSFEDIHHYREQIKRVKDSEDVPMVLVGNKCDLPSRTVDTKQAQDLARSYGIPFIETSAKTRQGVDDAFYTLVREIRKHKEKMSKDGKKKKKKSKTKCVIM

In the case of `N#Cc1c(N)sc2c(F)ccc(-c3c(Cl)c4c5c(nc(OC[C@@]67CCCN6C[C@H](F)C7)nc5c3F)N(C3CCCN(C=O)CC3)CCO4)c12` (stereo partly drawn) [Compound 601, 2-amino-4-(8-chloro-10-fluoro-2-(((2R,7aS)-2-fluorotetrahydro-1H-pyrrolizin-7a(5H)-yl)methoxy)-4-(1-formylazepan-4-yl)-5,6-dihydro-4H-[1,4]oxazepino[5,6,7-de]quinazolin-9-yl)-7-fluorobenzo[b]thiophene-3-carbonitrile], the IC50 on K-Ras WT is under 100 nM; in the assay with A549 cells, under 5000 nM; in the assay on SW620 cells, under 5000 nM; at K-Ras G12D it was under 100 nM; on K-Ras G12S, under 100 nM; at K-Ras G12V, under 100 nM.

Take `CC1(C)CCC(N2CCOc3c(Cl)c(-c4ccc(F)c5sc(N)c(C#N)c45)c(F)c4nc(OC[C@@]56CCCN5C[C@H](F)C6)nc2c34)CO1` (stereo partly drawn) [Compound 603, 2-amino-4-(8-chloro-4-(6,6-dimethyltetrahydro-2H-pyran-3-yl)-10-fluoro-2-(((2R,7aS)-2-fluorotetrahydro-1H-pyrrolizin-7a(5H)-yl)methoxy)-5,6-dihydro-4H-[1,4]oxazepino[5,6,7-de]quinazolin-9-yl)-7-fluorobenzo[b]thiophene-3-carbonitrile]: the IC50 on K-Ras WT was under 100 nM; in the assay on A549 cells, under 5000 nM; with SW620 cells, under 5000 nM; at K-Ras G12D, under 100 nM; on K-Ras G12S, under 100 nM; on K-Ras G12V it was under 100 nM.

`N#Cc1c(N)sc2c(F)ccc(-c3c(Cl)c4c5c(nc(OC[C@@]67CCCN6C[C@H](F)C7)nc5c3F)N(C3CCC(=C(F)F)C3)CCO4)c12` (stereo partly drawn) [Compound 605, 2-amino-4-(8-chloro-4-(3-(difluoromethylene)cyclopentyl)-10-fluoro-2-(((2R,7aS)-2-fluorotetrahydro-1H-pyrrolizin-7a(5H)-yl)methoxy)-5,6-dihydro-4H-[1,4]oxazepino[5,6,7-de]quinazolin-9-yl)-7-fluorobenzo[b]thiophene-3-carbonitrile]: the IC50 at K-Ras WT is under 100 nM; with A549 cells, under 5000 nM; in the assay with SW620 cells, under 5000 nM; at K-Ras G12S, under 100 nM; at K-Ras G12V, under 100 nM.

For the compound `CC(=O)NC1CC(N2CCOc3c(Cl)c(-c4ccc(F)c5sc(N)c(C#N)c45)c(F)c4nc(OC[C@@]56CCCN5C[C@H](F)C6)nc2c34)C1` (stereo partly drawn) [Compound 623, N-(3-(9-(2-amino-3-cyano-7-fluorobenzo[b]thiophen-4-yl)-8-chloro-10-fluoro-2-(((2R,7aS)-2-fluorotetrahydro-1H-pyrrolizin-7a(5H)-yl)methoxy)-5,6-dihydro-4H-[1,4]oxazepino[5,6,7-de]quinazolin-4-yl)cyclobutyl)acetamide], the IC50 on K-Ras WT was under 100 nM; with A549 cells it was under 5000 nM; with SW620 cells it was under 5000 nM; at K-Ras G12D, under 100 nM; at K-Ras G12S, under 100 nM; at K-Ras G12V, under 100 nM.

`N#CCC(=O)N1CCC(N2CCOc3c(Cl)c(-c4ccc(F)c5sc(N)c(C#N)c45)c(F)c4nc(OC[C@@]56CCCN5C[C@H](F)C6)nc2c34)C1` (stereo partly drawn) [Compound 626, 2-amino-4-(8-chloro-4-(1-(2-cyanoacetyl)pyrrolidin-3-yl)-10-fluoro-2-(((2R,7aS)-2-fluorotetrahydro-1H-pyrrolizin-7a(5H)-yl)methoxy)-5,6-dihydro-4H-[1,4]oxazepino[5,6,7-de]quinazolin-9-yl)-7-fluorobenzo[b]thiophene-3-carbonitrile]: the IC50 on K-Ras WT is under 100 nM; in the assay on A549 cells, under 5000 nM; in the assay on SW620 cells it was under 5000 nM; on K-Ras G12D it was under 100 nM; on K-Ras G12S, under 100 nM; at K-Ras G12V it was under 100 nM.

For `C[C@H]1CN(C23CC(C2)C3)c2nc(OC[C@@]34CCCN3C[C@H](F)C4)nc3c(F)c(-c4ccc(F)c5sc(N)c(C#N)c45)c(Cl)c(c23)O1` [Compound 687, 2-amino-4-((6S)-4-(bicyclo[1.1.1]pentan-1-yl)-8-chloro-10-fluoro-2-(((2R,7aS)-2-fluorotetrahydro-1H-pyrrolizin-7a(5H)-yl)methoxy)-6-methyl-5,6-dihydro-4H-[1,4]oxazepino[5,6,7-de]quinazolin-9-yl)-7-fluorobenzo[b]thiophene-3-carbonitrile], the IC50 at K-Ras WT is under 100 nM; in the assay on A549 cells it was under 5000 nM; with SW620 cells, under 5000 nM; on K-Ras G12D it was under 100 nM; at K-Ras G12S it was under 100 nM.

For `N#Cc1c(N)sc2c(F)ccc(-c3c(Cl)c4c5c(nc(OC[C@@]67CCCN6C[C@H](F)C7)nc5c3F)N(C3CC(NC(=O)C(F)Cl)C3)CCO4)c12` (stereo partly drawn) [Compound 724, N-(3-(9-(2-amino-3-cyano-7-fluorobenzo[b]thiophen-4-yl)-8-chloro-10-fluoro-2-(((2R,7aS)-2-fluorotetrahydro-1H-pyrrolizin-7a(5H)-yl)methoxy)-5,6-dihydro-4H-[1,4]oxazepino[5,6,7-de]quinazolin-4-yl)cyclobutyl)-2-chloro-2-fluoroacetamide], the IC50 at K-Ras WT is under 100 nM; with A549 cells it was under 5000 nM; in the assay on SW620 cells, under 5000 nM; on K-Ras G12D, under 100 nM; at K-Ras G12S it was under 100 nM.

Consider `CCC1CC(N2CCOc3c(Cl)c(-c4ccc(F)c5sc(N)c(C#N)c45)c(F)c4nc(OC[C@@]56CCCN5C[C@H](F)C6)nc2c34)CCO1` (stereo partly drawn) [Compound 903, 2-amino-4-(8-chloro-4-(2-ethyltetrahydro-2H-pyran-4-yl)-10-fluoro-2-(((2R,7aS)-2-fluorotetrahydro-1H-pyrrolizin-7a(5H)-yl)methoxy)-5,6-dihydro-4H-[1,4]oxazepino[5,6,7-de]quinazolin-9-yl)-7-fluorobenzo[b]thiophene-3-carbonitrile], for which the IC50 is under 100 nM at K-Ras WT; under 5000 nM in the assay on A549 cells; under 5000 nM with SW620 cells; under 100 nM on K-Ras G12S; under 100 nM on K-Ras G12V.

Regarding `C[C@H](Oc1nc2c3c(c(Cl)c(-c4ccc(F)c5sc(N)c(C#N)c45)c(F)c3n1)OCCN2C1CCOCC1)[C@@H]1CCCN1C` [Compound 904, 2-amino-4-(8-chloro-10-fluoro-2-((S)-1-((S)-1-methylpyrrolidin-2-yl)ethoxy)-4-(tetrahydro-2H-pyran-4-yl)-5,6-dihydro-4H-[1,4]oxazepino[5,6,7-de]quinazolin-9-yl)-7-fluorobenzo[b]thiophene-3-carbonitrile], the IC50 was under 100 nM on K-Ras WT; under 5000 nM in the assay with A549 cells; under 5000 nM in the assay with SW620 cells; under 100 nM at K-Ras G12S; under 100 nM on K-Ras G12V.

Turning to `N#Cc1c(N)sc2c(F)ccc(-c3c(Cl)c4c5c(nc(OC[C@@]67CCCN6C[C@H](F)C7)nc5c3F)N(C3CCC(COC(F)F)C3)CCO4)c12` (stereo partly drawn) [Compound 933, 2-amino-4-(8-chloro-4-(3-((difluoromethoxy)methyl)cyclopentyl)-10-fluoro-2-(((2R,7aS)-2-fluorotetrahydro-1H-pyrrolizin-7a(5H)-yl)methoxy)-5,6-dihydro-4H-[1,4]oxazepino[5,6,7-de]quinazolin-9-yl)-7-fluorobenzo[b]thiophene-3-carbonitrile], the IC50 is under 100 nM on K-Ras WT; under 5000 nM in the assay on A549 cells; under 5000 nM in the assay with SW620 cells; under 100 nM at K-Ras G12S; under 100 nM on K-Ras G12V.
